Laboratory results from PMC4556714, “Drug Development in Conformational Diseases: A Novel Family of Chemical Chaperones that Bind and Stabilise Several Polymorphic Amyloid Structures” (PLoS ONE, 2015).
pIC50: −log10 of the molar value.

Legend:
[1] = biological target: T1, Bovine serum albumin (BSA, fraction V) (Bos taurus, UniProt P02769); assay: ThT fluorescence, BSA fibrillation at […]; type: biochemical; details: BSA 100 μmol/L, glycine buffer pH 3, NaCl 100 mM, 65°C
T1 construct: gene ALB; mature native serum albumin, 585 residues, fraction V from Roche; heat/acid-induced amyloid aggregation
T1 sequence (P02769 25-607): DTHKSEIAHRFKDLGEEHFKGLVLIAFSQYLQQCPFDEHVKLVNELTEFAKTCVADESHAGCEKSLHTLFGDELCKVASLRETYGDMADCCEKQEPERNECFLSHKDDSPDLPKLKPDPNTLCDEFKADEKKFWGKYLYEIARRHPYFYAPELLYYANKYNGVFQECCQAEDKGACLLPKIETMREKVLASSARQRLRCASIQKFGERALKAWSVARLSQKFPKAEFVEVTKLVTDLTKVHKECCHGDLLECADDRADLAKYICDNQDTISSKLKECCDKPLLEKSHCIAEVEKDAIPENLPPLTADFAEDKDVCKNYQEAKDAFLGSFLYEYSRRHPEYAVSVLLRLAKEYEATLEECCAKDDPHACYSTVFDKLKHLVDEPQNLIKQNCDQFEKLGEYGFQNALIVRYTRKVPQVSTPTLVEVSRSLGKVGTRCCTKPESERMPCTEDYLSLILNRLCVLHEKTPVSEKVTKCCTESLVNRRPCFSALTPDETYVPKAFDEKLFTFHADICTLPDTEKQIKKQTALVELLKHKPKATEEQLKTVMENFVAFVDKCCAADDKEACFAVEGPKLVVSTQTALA

[2] = biological target: T1, Bovine serum albumin (BSA, fraction V); assay: ThT fluorescence, inhibition of BSA amyloid aggregation; type: biochemical

SMILES | pIC50 [2] | also measured
CSC(=S)NCCNC(=O)CCC(=O)Nc1cccc2ccccc12 [B, methyl (2-{[4-(1-naphthylamino)-4-oxobutanoyl]amino}ethyl) dithiocarbamate] |  | % ThT fluorescence change at 100 μmol/L [1]: chaperones A, C, D, B and E had a strong inhibitory effect on BSA fibrillation
O=C(O)CCCCCNC(=O)CCC(=O)Nc1cccc2ccccc12 [E, 6-{[4-(1-naphthylamino)-4-oxobutanoyl]amino} hexanoic acid] | 5.27 | 
O=C(CCC(=O)Nc1cccc2ccccc12)NCCNC(=O)CCC(=O)Nc1cccc2ccccc12 [F, N3,N3'-ethane-1,2-dyilbis(N1-1-naphthylsuccinamide)] | 4.40 | 
NCCCCNC(=O)CCC(=O)Nc1cccc2ccccc12 [G, N-(4-aminobutyl)-N'-1-naphthylsuccinamide] |  | % ThT fluorescence change at 100 μmol/L ([1]; aggregation enhancer): At the same concentrations, the chaperones F and G increased BSA fibrillation

Continued, in another order:

pIC50 [2] | SMILES | also measured
5.20 | NCCNC(=O)CCC(=O)Nc1cccc2ccccc12 [A, N-(2-aminoethyl)-N'-1-naphthylsuccinamide] | 
5.20 | O=C(O)CCNC(=O)CCC(=O)Nc1cccc2ccccc12 [D, N-[4-(1-naphthylamino)-4-oxobutanoyl]-β-alanine] | 
